Measured values reported in US7671054B1, “Reverse-turn mimetics and method relating thereto” (Choongwae Pharma Corporation, priority 2001, dated 2010).
In brackets after ≈: the same amount, converted by molar mass.

What was measured:
[1] = tested on: LOX-IMVI; experiment: Sulforhodamine B (SRB) assay; assay type: cell-based; settings: Homo sapiens, Melanoma, 48 hours, read-out: GI50 (SRB in vitro cytotoxicity)
Procedure: (§1) Growth inhibitory effect of Compound A on the cells listed below was measured by the sulforhodamine B assay. SW480 cells in 100 μl media were plated in each well of 96-well plate and allowed to attach for 24 hours. Compound A was added to the wells to produce the desired final concentrations, and the plates were incubated at 37° C. for 48 hours. The cells were then fixed by gentle addition of 100 μl of cold (4° C.) 10% trichloroacetic acid to each well, followed by incubation at 4° C. for 1 hour. Plates were washed with deionized water five times and allowed to air dry. The cells were then stained by addition of 100 μl SRB solution (0.4% SRB(w/v) in 1% acetic acid (v/v)) to wells for 15 min. After staining, the plates were quickly washed five times with 1% acetic acid to remove any unbound dye, and allowed to air dry. Bound dye was solubilized with 10 mmol/L Tris base (pH 10.5) prior to reading the plates. The optical density (OD) was read on a plate reader at a wavelength of 515 nm with Molecular Device. Inhibition of growth was expressed as relative viability (% of control) and GI50 was calculated from concentration-response curves after log/probit transformation.

[2] = tested on: A375; experiment: Sulforhodamine B (SRB) assay; assay type: cell-based; settings: Homo sapiens, A-375; A375, Melanoma; 48 hours; read-out: GI50 (SRB in vitro cytotoxicity)
Procedure: as §1

Question: With `O=c1[nH]cc(F)c(=O)[nH]1` [Compound 5-FU, 5-fluorouracil] as the compound, how does the GI50 [1] read?
Answer: > 10 µg/mL

Question: What about the GI50 [2] of the same compound?
Answer: 1.46 µg/mL (≈ 11.3 µM)
